Laboratory results: US20020082452A1, “alpha-sulfin-and alpha-sulfonamino acid amides” (priority 1998, published 2002)

How the values were obtained:
Format in all cases: in vivo
Phytophthora [1] = experiment: D-3: Action against Phytophthora on potato plants (residual-protective and systemic action); conditions: potato plants (Bintje variety), spray mixture 0.02% active ingredient (sprayed or watered), evaluated after 4 days at 90-100% relative humidity and 20° C.
Experimental: D-3 Action Against Phytophthora on Potato Plants
(§1) a) Residual-Protective Action
(§2) 2-3 week old potato plants (Bintje variety) are sprayed with a spray mixture (0.02% active ingredient) prepared from a wettable powder formulation of the test compound. After 48 hours, the treated plants are infected with a sporangia suspension of the fungus. Fungus infestation is evaluated after incubation of the infected plants for 4 days at 90-100% relative humidity and 20° C.
as §2, with “watered” for “sprayed”, “ingredient based on the volume of the soil)” for “ingredient)”, “compound. […]” for “compound.”, “C. Fungal infestation is effectively controlled with compounds of Tables 1 to 37. Compounds A1.02, A1.03, A1.04, A1.03, A1.05, A1.06, A1.07, A1.09, A1.10, A1.13, A1.14, A1.15, A1.16, A1.21, A1.23.” for “C.”

Plasmopara viticola = experiment: D-1: Action against Plasmopara viticola on vines (residual-protective and residual-curative action); conditions: vine seedlings, spray mixture 0.02% active ingredient, evaluated after 6 days at 95-100% relative humidity and 20° C.
Experimental: D-1: Action against Plasmopara viticola on Vines a) Residual-Protective Action
Vine seedlings are sprayed at the 4- to 5-leaf stage with a spray mixture (0.02% active ingredient) prepared from a wettable powder formulation of the test compound. After 24 hours, the treated plants are infected with a sporangia suspension of the fungus. Fungus infestation is evaluated after incubation for 6 days at 95-100% relative humidity and 20° C. […]
b) Residual-Curative Action
Vine seedlings are infected at the 4- to 5-leaf stage with a sporangia suspension of the fungus. After incubation for 24 hours in a humidity chamber at 95-100% relative humidity and 20° C., the infected plants are dried and sprayed with a spray mixture (0.02% active ingredient) prepared from a wettable powder formulation of the test compound. After the spray coating has dried, the treated plants are placed in the humidity chamber again. Fungus infestation is evaluated 6 days after infection. […] Compounds A1.02, A1.03, A1.04, A1.03, A1.5, A1.06, A1.07, A1.09, A1.10, A1.13, A1.14, A1.15, A1.16, A1.21, A1.23.

Phytophthora [2] = experiment: D-2: Action against Phytophthora on tomato plants (residual-protective and systemic action); conditions: spray mixture 0.02% active ingredient (sprayed or watered), evaluated after 4-5 days at 90-100% relative humidity and 20° C.
Experimental: D-2: Action Against Phytophthora on Tomato Plants
as §1
(§3) After a cultivation period of 3 weeks, tomato plants are sprayed with a spray mixture (0.02% active ingredient) prepared from a wettable powder formulation of the test compound. After 48 hours, the treated plants are infected with a sporangia suspension of the fungus. Fungus infestation is evaluated after incubation of the infected plants for 5 days at 90-100% relative humidity and 20° C.
as §3, with “watered” for “sprayed”, “ingredient based on the volume of the soil)” for “ingredient)”, “compound. […]” for “compound.”, “96” for “48”, “4” for “5”, “C. […] Compounds A1.02, A1.03, A1.04, A1.03, A1.05, A1.06, A1.07, A1.09, A1.10, A1.13, A1.14, A1.15, A1.16, A1.21, A1.23.” for “C.”

Measured: Fungus infestation

COc1cc(CCNC(=O)C(NS(C)(=O)=O)C(C)C)ccc1OC(C)COc1ccc(Cl)cc1 (mixture of isomers) [Compound A1.80]
completely inhibit fungal infestation: all assays above

C#CCC(NS(=O)(=O)CC)C(=O)NCCc1ccc(OCC=Cc2ccc(Cl)cc2)c(OC)c1 (racemic) [Compound A1.108]
completely inhibit fungal infestation: all assays above

COc1cc(CCNC(=O)[C@@H](NS(C)(=O)=O)C(C)C)ccc1OCCOc1ccc(F)cc1 [Compound A1.02]
completely inhibit fungal infestation: all assays above

COc1cc(CCNC(=O)[C@@H](NS(=O)(=O)N(C)C)C(C)C)ccc1OCCOc1ccc(F)cc1 [Compound A1.03]
completely inhibit fungal infestation: all assays above

CCC[C@H](NS(=O)(=O)CC)C(=O)NCCc1ccc(OCCOc2ccc(F)cc2)c(OC)c1 [Compound A1.04]
completely inhibit fungal infestation: all assays above

CC[C@H](NS(=O)(=O)CC)C(=O)NCCc1ccc(OCCOc2ccc(F)cc2)c(OC)c1 [Compound A1.05]
completely inhibit fungal infestation: all assays above

CCS(=O)(=O)N[C@H](C(=O)NCCc1ccc(OCCOc2ccccc2)c(OC)c1)C(C)C [Compound A1.06]
completely inhibit fungal infestation: all assays above

COc1cc(CCNC(=O)[C@@H](NS(C)(=O)=O)C(C)C)ccc1OCCOc1ccccc1 [Compound A1.07]
completely inhibit fungal infestation: all assays above

CCC[C@H](NS(=O)(=O)CC)C(=O)NCCc1ccc(OCCOc2ccccc2)c(OC)c1 [Compound A1.09]
completely inhibit fungal infestation: all assays above

CC[C@H](NS(=O)(=O)CC)C(=O)NCCc1ccc(OCCOc2ccccc2)c(OC)c1 [Compound A1.10]
completely inhibit fungal infestation: all assays above

CCS(=O)(=O)N[C@H](C(=O)NCCc1ccc(OCCOc2ccc(Cl)cc2)c(OC)c1)C(C)C [Compound A1.13]
completely inhibit fungal infestation: all assays above

COc1cc(CCNC(=O)[C@@H](NS(C)(=O)=O)C(C)C)ccc1OCCOc1ccc(Cl)cc1 [Compound A1.14]
completely inhibit fungal infestation: all assays above

CC[C@H](NS(=O)(=O)CC)C(=O)NCCc1ccc(OCCOc2ccc(Cl)cc2)c(OC)c1 [Compound A1.15]
completely inhibit fungal infestation: all assays above

CCC[C@H](NS(=O)(=O)CC)C(=O)NCCc1ccc(OCCOc2ccc(Cl)cc2)c(OC)c1 [Compound A1.16]
completely inhibit fungal infestation: all assays above

CCS(=O)(=O)N[C@H](C(=O)NCCc1ccc(OCCOc2ccccc2Cl)c(OC)c1)C(C)C [Compound A1.21]
completely inhibit fungal infestation: all assays above

CCS(=O)(=O)N[C@H](C(=O)NCCc1ccc(OCCOc2cccc(F)c2)c(OC)c1)C(C)C [Compound A1.23]
completely inhibit fungal infestation: all assays above

CCS(=O)(=O)N[C@H](C(=O)NCCc1ccc(OCCOc2ccc(C)cc2)c(OC)c1)C(C)C [Compound A1.24]
completely inhibit fungal infestation: all assays above

CCS(=O)(=O)N[C@H](C(=O)NCCc1ccc(OCCOc2cccc(C)c2)c(OC)c1)C(C)C [Compound A1.25]
completely inhibit fungal infestation: all assays above

COc1cc(CCNC(=O)[C@@H](NS(C)(=O)=O)C(C)C)ccc1OCCOc1ccc(Cl)c(Cl)c1 [Compound A1.75]
completely inhibit fungal infestation: all assays above

COc1cc(CCNC(=O)[C@@H](NS(C)(=O)=O)C(C)C)ccc1OCCOc1cccc(F)c1 [Compound A1.76]
completely inhibit fungal infestation: all assays above

COc1cc(CCNC(=O)[C@@H](NS(C)(=O)=O)C(C)C)ccc1OCCSc1ccc(Cl)cc1 [Compound A1.78]
completely inhibit fungal infestation: all assays above

CCS(=O)(=O)N[C@H](C(=O)NCCc1ccc(OCC=Cc2ccc(Cl)cc2)c(OC)c1)C1CCC1 [Compound A1.107]
completely inhibit fungal infestation: all assays above

CCS(=O)(=O)N[C@H](C(=O)NCCc1ccc(OC/C=C/c2ccc(Cl)cc2)c(OC)c1)C(C)C [Compound A2.03]
completely inhibit fungal infestation: all assays above

COc1cc(CCNC(=O)[C@@H](NS(C)(=O)=O)C(C)C)ccc1OC/C=C/c1ccc(Cl)cc1 [Compound A2.04]
completely inhibit fungal infestation: all assays above

CCS(=O)(=O)N[C@H](C(=O)NCCc1ccc(OC/C=C/c2ccccc2F)c(OC)c1)C(C)C [Compound A2.09]
completely inhibit fungal infestation: all assays above

COc1cc(CCNC(=O)[C@@H](NS(C)(=O)=O)C(C)C)ccc1OC/C=C/c1ccccc1F [Compound A2.10]
completely inhibit fungal infestation: all assays above
